For series [1], the target named is ABL1(E255K)-phosphorylated (Homo sapiens, UniProt P00519, E255K). Kind of series: Kinase panel: ABL1(E255K)-phosphorylated. The format is biochemical. As to conditions: 10 μM EP009. As for the experimental part:
(§1) Achieving JAK3 selectivity remains a significant challenge in the development of new small molecules for the treatment of cancer and immune-derived diseases. As such, the inventors employed cell-based screening assays of small-molecule libraries based upon the chemical scaffold of the established JAK3 inhibitor NC1153 (Stepkowski et al., J Immunol. (2005), 175(7):4236-4246) EP009 (FIG. 2A) was selected as a lead compound due to improved intrinsic stability (>95% purity in various solvents at 37° C. for 24 hours; FIG. 3) and high-degree of JAK3 selectivity. To test JAK3 versus JAK2 specificity of EP009, the IL-2/JAK3-dependent Kit225, and IL-3/JAK2-dependent BaF/3 cell lines were used. Kit225 and BaF/3 cells growing in the presence of IL-2 or IL-3, respectively, were treated with ascending concentrations of EP009 for 12 hours and cellular JAK3 and JAK2 tyrosine phosphorylation levels detected by Western blot analysis (FIGS. 2B and 2C). Following densitometric analysis, EP009 was determined to dose-dependently reduce IL-2-mediated JAK3 tyrosine phosphorylation with a cellular 50% inhibitory concentration (IC50) between 10 and 20 μM (FIG. 2B). […] To globally evaluate specificity, the inhibitory activity of EP009 was measured against a panel of protein kinases distributed throughout the kinome using the scanEDGE profiling service (KINOMEscan). […]

Another series deals with SNARK (Homo sapiens, UniProt Q9H093). Kind of series: Kinase panel: SNARK. To be noted: 10 μM EP009. The class given is biochemical. As for the experimental part: as §1
Another series deals with DYRK1B (Homo sapiens, UniProt Q9Y463). Kind of series: Kinase panel: DYRK1B. The format is biochemical. To be noted: 10 μM EP009. As for the experimental part:
as §1

A further series has as its target RET (Homo sapiens, UniProt P07949). Kind of series: Kinase panel: RET. The format is biochemical. To be noted: 10 μM EP009. The protocol:
as §1

A further series deals with DCAMKL1 (Homo sapiens, UniProt O15075). Kind of series: Kinase panel: DCAMKL1. The format is biochemical. As to conditions: 10 μM EP009. As for the experimental part:
as §1

The next series addresses TRKA (Homo sapiens, UniProt P04629). Kind of series: Kinase panel: TRKA. To be noted: 10 μM EP009. The format is biochemical. The protocol: as §1
The target of a further series is FLT3 (Homo sapiens, UniProt P36888). Kind of series: Kinase panel: FLT3. The format is biochemical. As to conditions: 10 μM EP009. As for the experimental part: as §1
A further series deals with RAF1 (Homo sapiens, UniProt P04049). Kind of series: Kinase panel: RAF1. The class given is biochemical. To be noted: 10 μM EP009. The protocol:
as §1

The next series concerns the target ERBB4 (Homo sapiens, UniProt Q15303). Kind of series: Kinase panel: ERBB4. The class given is biochemical. To be noted: 10 μM EP009. As for the experimental part: as §1
Another series deals with p38-alpha (Homo sapiens, UniProt Q16539). Kind of series: Kinase panel: p38-alpha. The format is biochemical. To be noted: 10 μM EP009. As for the experimental part: as §1
Series [2] is described as follows: Oral pharmacokinetics in rats (plasma, LC-MS/MS). The class given is in vivo, Sprague Dawley rats. To be noted: single oral dose of 200 mg/kg. The protocol:
FIGS. 9A-9B Pharmacokinetics and efficacy of EP009 in vivo. (A) Sprague Dawley rats were administered EP009 by oral gavage (200 mg/kg) and pharmacokinetics measured by analysis of plasma concentrations at indicated time points. Values represent mean concentrations, while error bars represent the standard deviation (n=5). (B) Therapeutic study of EP009 in SU-DHL-1 model in SCID/NOD mice.
EP009 (200 mg/kg) was administered orally to Sprague Dawley rats (Texas Animal Specialties) of ˜200 g weight (n=5) after an overnight fast. Blood (˜200 μl) was drawn at 0.5, 1, 2, 4, 8 and 24 hours after dosing and plasma was collected and snap-frozen in liquid nitrogen. EP009 plasma concentrations were determined by a liquid chromatography tandem mass spectrometry (LC-MS/MS) system. This system included a HPLC (Shimadzu Scientific Corporation) with an ACE C18 column (50×2.1 mm, 5 um) and an API-4000 (triple-quadruple) mass spectrometer (ABSciex, Inc) with an electrospray ionization source. A positive multiple reaction monitoring (MRM) scan was applied. The mobile phase A and B used in this study were 0.1% formic acid in 5 mM ammonium acetate and 0.1% formic acid in 100% acetonitrile. Plasma samples (50 μL) were mixed with 50 μL of blank plasma and 300 μL of internal standard solution (Verapamil, 20 ng/mL in 100% acetonitrile). After vortexing for 1 min and centrifuging for 5 min at 16,000×g, 300 μL supernatants were analyzed by LC-MS/MS. The limit of quantitation was 1 ng/mL of EP009 in plasma and the calibration range was from 1 to 2000 ng/mL.

In another series the target is PLK1 (Homo sapiens, UniProt P53350). Kind of series: Kinase panel: PLK1. The format is biochemical. To be noted: 10 μM EP009. As for the experimental part: as §1
Another series deals with EGFR (Homo sapiens, UniProt P00533). Kind of series: Kinase panel: EGFR. The format is biochemical. To be noted: 10 μM EP009. The protocol:
as §1

A further series has as its target PCTK1 (Homo sapiens, UniProt Q00536). Kind of series: Kinase panel: PCTK1. As to conditions: 10 μM EP009. The format is biochemical. As for the experimental part: as §1
A further series has as its target RIOK2 (Homo sapiens, UniProt Q9BVS4). Kind of series: Kinase panel: RIOK2. The format is biochemical. To be noted: 10 μM EP009. The protocol:
as §1

The next series addresses MET (Homo sapiens, UniProt P08581). Kind of series: Kinase panel: MET. The format is biochemical. To be noted: 10 μM EP009. The protocol:
as §1

The next series deals with IKK-beta (Homo sapiens, UniProt O14920). Kind of series: Kinase panel: IKK-beta. The format is biochemical. As to conditions: 10 μM EP009. As for the experimental part:
as §1

The structures appear in SMILES notation. Several values for one entry are separate records, joined by “and”; a condition that tells them apart may be missing. Equal entries are not always repeated.

Chain of p38-alpha (Q16539 whole entry): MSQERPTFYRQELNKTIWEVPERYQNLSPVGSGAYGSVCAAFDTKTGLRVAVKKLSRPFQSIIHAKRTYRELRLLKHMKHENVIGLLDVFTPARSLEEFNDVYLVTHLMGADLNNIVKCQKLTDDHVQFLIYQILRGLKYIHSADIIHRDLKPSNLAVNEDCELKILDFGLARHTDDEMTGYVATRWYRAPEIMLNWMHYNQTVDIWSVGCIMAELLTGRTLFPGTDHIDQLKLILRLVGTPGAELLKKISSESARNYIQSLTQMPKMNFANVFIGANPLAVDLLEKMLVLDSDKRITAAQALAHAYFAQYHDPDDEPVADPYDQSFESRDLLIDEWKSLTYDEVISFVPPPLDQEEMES
Chain of DCAMKL1 (O15075 whole entry): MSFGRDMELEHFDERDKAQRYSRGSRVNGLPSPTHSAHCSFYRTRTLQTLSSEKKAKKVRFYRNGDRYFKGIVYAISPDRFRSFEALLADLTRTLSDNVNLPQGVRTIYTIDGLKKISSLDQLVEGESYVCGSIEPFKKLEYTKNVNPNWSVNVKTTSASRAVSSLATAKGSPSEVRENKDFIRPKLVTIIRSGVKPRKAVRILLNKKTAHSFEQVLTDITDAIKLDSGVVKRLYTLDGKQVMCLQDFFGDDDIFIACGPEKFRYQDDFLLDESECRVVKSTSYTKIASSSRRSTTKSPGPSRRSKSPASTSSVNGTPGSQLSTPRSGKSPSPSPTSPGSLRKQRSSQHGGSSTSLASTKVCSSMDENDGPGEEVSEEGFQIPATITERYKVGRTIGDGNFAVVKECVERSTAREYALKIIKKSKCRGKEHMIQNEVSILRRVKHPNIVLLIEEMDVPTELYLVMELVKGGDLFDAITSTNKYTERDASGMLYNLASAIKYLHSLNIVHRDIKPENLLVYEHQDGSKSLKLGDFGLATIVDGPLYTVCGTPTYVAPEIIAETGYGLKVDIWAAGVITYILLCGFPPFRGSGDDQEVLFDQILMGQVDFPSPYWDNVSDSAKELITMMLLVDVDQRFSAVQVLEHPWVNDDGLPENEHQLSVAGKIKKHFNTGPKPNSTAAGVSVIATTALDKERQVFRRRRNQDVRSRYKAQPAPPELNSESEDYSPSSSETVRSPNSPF
Chain of IKK-beta (O14920 whole entry): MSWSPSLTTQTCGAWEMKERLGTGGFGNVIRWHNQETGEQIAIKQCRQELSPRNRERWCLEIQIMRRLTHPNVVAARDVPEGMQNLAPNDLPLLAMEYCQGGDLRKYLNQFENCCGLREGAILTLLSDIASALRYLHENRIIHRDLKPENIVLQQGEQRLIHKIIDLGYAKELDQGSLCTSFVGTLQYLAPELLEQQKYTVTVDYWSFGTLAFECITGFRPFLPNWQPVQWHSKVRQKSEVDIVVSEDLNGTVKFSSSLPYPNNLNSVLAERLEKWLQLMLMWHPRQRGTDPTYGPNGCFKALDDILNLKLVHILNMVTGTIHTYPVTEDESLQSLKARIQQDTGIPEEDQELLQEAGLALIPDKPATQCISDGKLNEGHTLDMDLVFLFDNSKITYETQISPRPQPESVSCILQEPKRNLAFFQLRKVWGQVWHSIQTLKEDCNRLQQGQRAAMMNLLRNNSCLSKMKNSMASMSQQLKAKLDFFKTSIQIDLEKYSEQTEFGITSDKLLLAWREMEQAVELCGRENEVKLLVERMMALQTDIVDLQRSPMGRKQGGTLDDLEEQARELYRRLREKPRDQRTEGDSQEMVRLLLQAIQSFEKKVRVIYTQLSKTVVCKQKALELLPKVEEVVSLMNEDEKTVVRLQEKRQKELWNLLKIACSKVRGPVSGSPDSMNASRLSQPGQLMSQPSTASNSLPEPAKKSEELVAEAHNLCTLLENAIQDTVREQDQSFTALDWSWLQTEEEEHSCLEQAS
Chain of PCTK1 (Q00536 whole entry): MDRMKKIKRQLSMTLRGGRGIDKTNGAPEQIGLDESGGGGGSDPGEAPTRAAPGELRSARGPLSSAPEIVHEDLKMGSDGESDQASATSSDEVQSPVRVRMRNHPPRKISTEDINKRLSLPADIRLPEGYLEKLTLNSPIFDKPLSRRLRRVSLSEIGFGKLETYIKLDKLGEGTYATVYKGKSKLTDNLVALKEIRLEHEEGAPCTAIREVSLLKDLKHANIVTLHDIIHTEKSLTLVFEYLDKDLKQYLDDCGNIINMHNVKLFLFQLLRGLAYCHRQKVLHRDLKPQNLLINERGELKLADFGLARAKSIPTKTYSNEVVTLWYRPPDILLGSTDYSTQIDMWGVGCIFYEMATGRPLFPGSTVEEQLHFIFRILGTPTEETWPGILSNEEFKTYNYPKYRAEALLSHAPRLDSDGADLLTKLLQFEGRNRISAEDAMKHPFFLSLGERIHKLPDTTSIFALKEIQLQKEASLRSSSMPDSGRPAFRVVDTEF
Chain of RAF1 (P04049 whole entry): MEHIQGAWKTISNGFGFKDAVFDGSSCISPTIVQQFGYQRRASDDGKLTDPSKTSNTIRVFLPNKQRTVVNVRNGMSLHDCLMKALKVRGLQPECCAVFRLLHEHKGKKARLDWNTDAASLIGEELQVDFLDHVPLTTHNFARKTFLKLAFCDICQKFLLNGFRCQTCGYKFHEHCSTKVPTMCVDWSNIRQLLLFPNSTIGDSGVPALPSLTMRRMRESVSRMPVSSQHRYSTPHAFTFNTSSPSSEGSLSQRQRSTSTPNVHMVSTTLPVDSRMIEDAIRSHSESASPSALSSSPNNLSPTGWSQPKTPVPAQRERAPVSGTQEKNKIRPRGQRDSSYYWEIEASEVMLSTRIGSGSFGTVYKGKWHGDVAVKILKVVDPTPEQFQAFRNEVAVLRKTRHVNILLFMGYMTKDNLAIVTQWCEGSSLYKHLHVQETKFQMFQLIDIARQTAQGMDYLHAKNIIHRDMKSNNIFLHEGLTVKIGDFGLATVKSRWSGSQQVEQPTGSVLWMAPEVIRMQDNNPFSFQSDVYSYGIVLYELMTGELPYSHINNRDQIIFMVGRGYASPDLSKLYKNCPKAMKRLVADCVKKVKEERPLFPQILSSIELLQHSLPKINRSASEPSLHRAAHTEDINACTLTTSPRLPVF
Chain of SNARK (Q9H093 whole entry): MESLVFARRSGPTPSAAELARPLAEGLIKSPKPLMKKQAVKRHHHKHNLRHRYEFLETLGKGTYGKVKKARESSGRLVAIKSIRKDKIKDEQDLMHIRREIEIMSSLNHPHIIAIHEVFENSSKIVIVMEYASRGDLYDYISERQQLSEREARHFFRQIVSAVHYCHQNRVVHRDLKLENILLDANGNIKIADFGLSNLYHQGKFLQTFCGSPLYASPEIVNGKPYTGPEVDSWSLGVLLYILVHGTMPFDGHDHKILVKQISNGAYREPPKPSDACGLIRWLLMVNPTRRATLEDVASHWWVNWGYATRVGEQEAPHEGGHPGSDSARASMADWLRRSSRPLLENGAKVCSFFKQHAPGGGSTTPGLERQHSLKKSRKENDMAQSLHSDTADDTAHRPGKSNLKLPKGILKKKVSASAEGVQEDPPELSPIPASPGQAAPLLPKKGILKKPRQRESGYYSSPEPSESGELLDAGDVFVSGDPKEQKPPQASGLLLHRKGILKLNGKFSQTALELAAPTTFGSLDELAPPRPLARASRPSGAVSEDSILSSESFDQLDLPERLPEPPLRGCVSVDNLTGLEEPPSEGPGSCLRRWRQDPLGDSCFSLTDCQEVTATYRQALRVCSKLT
Chain of TRKA (P04629 33-796): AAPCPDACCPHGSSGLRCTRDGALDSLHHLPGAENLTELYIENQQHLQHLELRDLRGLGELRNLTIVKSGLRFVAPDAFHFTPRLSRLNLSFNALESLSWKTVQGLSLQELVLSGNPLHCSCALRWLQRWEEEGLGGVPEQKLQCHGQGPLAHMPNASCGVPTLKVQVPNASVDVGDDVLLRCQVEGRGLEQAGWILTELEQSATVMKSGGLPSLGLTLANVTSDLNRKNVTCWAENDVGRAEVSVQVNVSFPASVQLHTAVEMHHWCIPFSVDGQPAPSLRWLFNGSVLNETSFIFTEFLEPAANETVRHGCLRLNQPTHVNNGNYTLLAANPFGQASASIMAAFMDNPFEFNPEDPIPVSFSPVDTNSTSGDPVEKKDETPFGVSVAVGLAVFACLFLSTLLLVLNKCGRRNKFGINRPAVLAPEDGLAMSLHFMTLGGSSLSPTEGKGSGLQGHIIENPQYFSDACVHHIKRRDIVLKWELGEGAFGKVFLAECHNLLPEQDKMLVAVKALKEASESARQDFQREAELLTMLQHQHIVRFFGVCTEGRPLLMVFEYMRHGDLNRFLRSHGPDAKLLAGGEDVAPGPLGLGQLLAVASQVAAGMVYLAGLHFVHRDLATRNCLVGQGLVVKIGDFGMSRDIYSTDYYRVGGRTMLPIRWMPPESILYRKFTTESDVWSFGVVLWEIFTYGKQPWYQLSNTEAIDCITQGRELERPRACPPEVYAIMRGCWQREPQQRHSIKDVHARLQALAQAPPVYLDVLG
Chain of RIOK2 (Q9BVS4 whole entry): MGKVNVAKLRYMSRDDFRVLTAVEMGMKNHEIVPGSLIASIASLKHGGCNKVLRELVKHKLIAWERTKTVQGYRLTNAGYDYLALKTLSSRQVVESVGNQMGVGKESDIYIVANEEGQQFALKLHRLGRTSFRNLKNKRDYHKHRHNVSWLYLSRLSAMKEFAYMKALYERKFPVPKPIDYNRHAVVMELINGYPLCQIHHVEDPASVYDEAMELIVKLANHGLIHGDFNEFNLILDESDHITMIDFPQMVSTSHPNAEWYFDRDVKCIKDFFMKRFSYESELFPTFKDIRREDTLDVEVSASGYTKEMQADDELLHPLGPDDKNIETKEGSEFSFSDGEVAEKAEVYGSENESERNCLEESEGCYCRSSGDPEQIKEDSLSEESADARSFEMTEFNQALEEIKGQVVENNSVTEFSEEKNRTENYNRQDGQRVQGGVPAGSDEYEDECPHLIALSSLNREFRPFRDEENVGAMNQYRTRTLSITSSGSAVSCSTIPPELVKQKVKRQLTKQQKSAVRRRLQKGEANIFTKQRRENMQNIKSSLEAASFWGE

With `C=C1CCCCCCCCCC(CO)C1=O` (centres unmarked) [EP009, 2-(Hydroxymethyl)-12-methylenecyclododecanone], the “Kinase Activity (% of Control)” value in [1] is 64 % of Control; at SNARK, 82 % of Control; at DYRK1B, 100 % of Control; at RET, 100 % of Control; at DCAMKL1, 100 % of Control; on TRKA it was 65 % of Control. Also, the “Kinase Activity (% of Control)” value was 99 % of Control at FLT3; 97 % of Control on RAF1; 91 % of Control at ERBB4; 100 % of Control on p38-alpha; 100 % of Control at PLK1; 100 % of Control at EGFR. Further, the “Kinase Activity (% of Control)” value is 85 % of Control on PCTK1, 69 % of Control at RIOK2, 89 % of Control on MET and 73 % of Control at IKK-beta. In addition, the AUC(0-t) in [2] (Sprague Dawley, rat, plasma, read-out: area under the concentration-time curve (AUC-t)) was 2110 ng·h/mL and 6.1 µM·h. Moreover, the half-life in series [2] (Sprague Dawley, rat, plasma, read-out: half-life (t1/2) (converted)) is 1 h. In addition, in [2] (Sprague Dawley, rat, plasma, read-out: peak plasma concentration (Cmax)), the Cmax was 2000 ng/mL and 5.74 µM. In addition, the “plasma levels eight hours after dosing” value in [2] was “declined to the limit of detection”.

(Values after US9371265B2, “Compositions and methods related to inhibitors of JAK kinase” (EP PHARMA, INC., priority 2012, dated 2016).)
